Assay results from patent US8952020B2, “Optically active pyrazolylaminoquinazoline, and pharmaceutical compositions and methods of use thereof” (Ambit Biosciences Corp., priority 2010, dated 2015).

Columns and labels:
[1] = system: GM-CSFR/JAK2/STAT5 pathway in csTF-1 cells; assay: csTF-1 cell-based reporter assay; conditions: Homo sapiens, GM-CSF at 2 ng/mL, beta-lactamase reporter, read-out: EC50, inhibition of GM-CSF stimulated reporter activity
Description: After 16 hr incubation, cells were seeded at 2×10^5 cell/well in 50 μL volume, into Costar, clear bottom, 96-well assay plates. Serial dilutions of compounds were added to the plates with final DMSO concentration at 0.5% and GM-CSF at 2 ng/mL and the plates were then incubated at 30° C. and 5% CO2 for 4 hrs. The plates were brought to room temperature before adding Substrate Mixture according to manufacturer's protocol (Invitrogen, Catalog #K1085). The assay plates containing the substrate mixture were incubated in the dark at room temperature for 2 hrs. Blue and green fluorescence were measured with excitation at 409 nm and emission at 460 nm (for blue) and excitation at 409 nm and emission at 530 nm (for green) using Spectra Max Gemini EM.

[2] = cynomolgus monkey, in vivo
Description: (§1) Three male cynomolgus monkeys were fasted overnight and through four hours postdose. Two 100 μL aliquots of each dosing formulation were taken predose. Three monkeys were given a single gavage dose of a test compound at 10 mg/kg, followed by an approximately 10.0 mL tap water flush of the gavage tube. After a 1 week washout period, two of the three monkeys received a single IV bolus dose of a test compound at 1 mg/kg in a peripheral vein followed by approximate 1.0 mL saline flush.

in vivo = conditions: male, cynomolgus monkey
Description: as §1

CYP1A2 = target: T1, CYP1A2 (Homo sapiens, UniProt P05177); assay: CYP450 inhibition in human liver microsomes
T1 sequence (P05177 1-516): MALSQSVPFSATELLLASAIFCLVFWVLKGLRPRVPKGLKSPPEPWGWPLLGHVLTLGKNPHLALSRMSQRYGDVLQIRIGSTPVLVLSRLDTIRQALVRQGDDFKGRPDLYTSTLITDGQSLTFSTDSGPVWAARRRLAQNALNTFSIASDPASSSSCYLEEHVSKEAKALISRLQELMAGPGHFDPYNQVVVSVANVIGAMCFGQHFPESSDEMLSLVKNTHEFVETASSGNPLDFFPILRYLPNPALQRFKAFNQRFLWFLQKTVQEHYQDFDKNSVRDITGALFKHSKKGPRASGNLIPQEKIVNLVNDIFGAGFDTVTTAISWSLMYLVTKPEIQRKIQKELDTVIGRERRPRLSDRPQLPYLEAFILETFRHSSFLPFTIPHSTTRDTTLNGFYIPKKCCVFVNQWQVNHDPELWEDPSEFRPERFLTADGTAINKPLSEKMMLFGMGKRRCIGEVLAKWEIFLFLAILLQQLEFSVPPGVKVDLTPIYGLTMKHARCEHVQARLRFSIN

CYP2B6 = target: T2, CYP2B6 (Homo sapiens, UniProt P20813); assay: CYP450 inhibition in human liver microsomes
T2 sequence (P20813 1-491): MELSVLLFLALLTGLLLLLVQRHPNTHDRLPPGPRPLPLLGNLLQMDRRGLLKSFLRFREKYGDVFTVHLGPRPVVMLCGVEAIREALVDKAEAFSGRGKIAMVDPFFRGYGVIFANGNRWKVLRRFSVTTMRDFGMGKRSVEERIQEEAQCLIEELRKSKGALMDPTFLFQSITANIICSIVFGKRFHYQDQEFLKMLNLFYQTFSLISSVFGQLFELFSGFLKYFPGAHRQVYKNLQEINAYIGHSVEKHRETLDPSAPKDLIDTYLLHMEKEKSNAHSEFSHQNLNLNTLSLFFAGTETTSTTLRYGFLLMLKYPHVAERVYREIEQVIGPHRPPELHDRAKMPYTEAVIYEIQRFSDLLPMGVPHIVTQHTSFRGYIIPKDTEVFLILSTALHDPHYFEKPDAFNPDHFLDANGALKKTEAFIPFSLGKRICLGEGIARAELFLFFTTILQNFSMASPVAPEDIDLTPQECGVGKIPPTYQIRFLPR

CYP2C8 = target: T3, CYP2C8 (Homo sapiens, UniProt P10632); assay: CYP450 inhibition in human liver microsomes
T3 sequence (P10632 1-490): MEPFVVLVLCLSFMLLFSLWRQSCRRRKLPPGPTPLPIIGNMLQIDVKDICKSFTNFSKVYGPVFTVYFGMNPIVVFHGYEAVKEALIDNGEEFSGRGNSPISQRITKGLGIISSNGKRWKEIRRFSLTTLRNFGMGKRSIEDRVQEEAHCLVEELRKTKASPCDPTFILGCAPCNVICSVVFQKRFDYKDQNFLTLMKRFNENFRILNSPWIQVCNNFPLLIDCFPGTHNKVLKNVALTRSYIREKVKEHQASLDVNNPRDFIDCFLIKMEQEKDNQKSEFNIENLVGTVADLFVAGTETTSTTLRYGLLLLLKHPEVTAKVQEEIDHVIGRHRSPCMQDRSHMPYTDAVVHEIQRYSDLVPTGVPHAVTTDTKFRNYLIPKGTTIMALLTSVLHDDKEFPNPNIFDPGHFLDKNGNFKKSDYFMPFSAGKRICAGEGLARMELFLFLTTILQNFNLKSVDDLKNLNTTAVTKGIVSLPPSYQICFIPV

CYP2D6 = CYP2D6 (Homo sapiens, UniProt P10635); assay: CYP450 inhibition in human liver microsomes
phosphodiesterase PDE5 = target: T4, phosphodiesterase PDE5 (Homo sapiens, UniProt O76074); assay: Inhibition of phosphodiesterase PDE5; format: biochemical; conditions: human platelets; read-out: IC50 against phosphodiesterase PDE5
T4 construct: from tissue; host or cells: human platelets
Description: Acta 1976, 429, 485-497 and Nicholson et al., Trends Pharmacol. Sci. 1991, 12, 19-27. Human platelets were used in this assay. The final DMSO concentration in the assay was about 1%. The assay was pre-incubated at 25° C. for 15 min and then incubated at 25° C. for 20 min in an incubation buffer (50 mM Tris-HCl, pH 7.5, 5 mM MgCl2). The assay was quantitated by measuring the amount of [^3H]guanosine.

melatonin MT = target: T5, melatonin MT (Homo sapiens, UniProt P48039); assay: Melatonin MT GTPγS binding assay; format: biochemical; conditions: GTPγS bound relative to 2-iodomelatonin response, CHO-K1 cells; read-out: IC50 against melatonin
T5 construct: expressed in transfected cells; host or cells: CHO-K1
Description: […] CHO-K1 cells Chinese hamster ovary were used in this assay. The final DMSO concentration in the assay was about 0.4%. The assay mixture was incubated at 30° C. for 30 min in an incubation buffer (20 mM HEPES, pH 7.4, 100 mM NaCl, 10 mM MgCl2, 1 mM DTT, and 1 mM EDTA). The assay was quantitated by measuring the amount of [^35S]GTPγS bound relative to 2-iodomelatonin response.

[3] = Pharmacokinetic studies in monkeys; conditions: for AUCall / Cl-obs / Cmax: monkeys
Description: as §1

[4] = Racemic administered IV 1 mg/kg, chiral analysis, label = analyte
[5] = Racemic administered PO 10 mg/kg, chiral analysis, label = analyte
[6] = compound administered IV 1 mg/kg, analyte = compound administered
[7] = compound administered PO 10 mg/kg, analyte = compound administered

CYP2D6, sequence (P10635 whole entry): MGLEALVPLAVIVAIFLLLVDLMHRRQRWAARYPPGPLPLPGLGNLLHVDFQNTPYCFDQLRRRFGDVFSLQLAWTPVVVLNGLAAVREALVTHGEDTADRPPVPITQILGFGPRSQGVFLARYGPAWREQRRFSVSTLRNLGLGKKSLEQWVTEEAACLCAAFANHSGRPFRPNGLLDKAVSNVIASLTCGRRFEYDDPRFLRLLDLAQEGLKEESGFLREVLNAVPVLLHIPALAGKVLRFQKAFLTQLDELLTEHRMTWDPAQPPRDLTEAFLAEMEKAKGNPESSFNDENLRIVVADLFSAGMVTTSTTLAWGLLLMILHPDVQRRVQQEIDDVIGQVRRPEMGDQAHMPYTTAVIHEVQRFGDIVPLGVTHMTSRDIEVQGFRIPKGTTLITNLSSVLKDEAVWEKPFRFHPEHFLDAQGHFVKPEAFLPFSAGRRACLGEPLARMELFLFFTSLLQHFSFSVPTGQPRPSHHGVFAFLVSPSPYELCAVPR
T5 sequence (P48039 whole entry): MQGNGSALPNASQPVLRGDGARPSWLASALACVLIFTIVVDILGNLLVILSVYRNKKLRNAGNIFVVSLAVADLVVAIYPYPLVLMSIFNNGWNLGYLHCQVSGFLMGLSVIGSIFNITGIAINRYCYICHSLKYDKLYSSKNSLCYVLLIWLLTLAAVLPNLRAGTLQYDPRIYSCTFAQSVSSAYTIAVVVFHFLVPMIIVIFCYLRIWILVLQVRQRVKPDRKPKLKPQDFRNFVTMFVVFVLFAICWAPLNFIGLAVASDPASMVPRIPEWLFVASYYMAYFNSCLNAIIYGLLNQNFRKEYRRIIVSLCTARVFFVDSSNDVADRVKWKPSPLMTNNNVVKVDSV

Row | Structure (SMILES) | EC50 [1] | share of the Cmax and AUC values determined for the racemic compound ([2]; male) | bioavailability (in vivo) | IC50 (CYP1A2) | IC50 (CYP2B6) | IC50 (CYP2C8) | IC50 (CYP2D6) | enantiomers present in plasma ([2]; po) | IC50 (phosphodiesterase PDE5) | IC50 (melatonin MT) | bioavailability ([3]; male, cynomolgus monkey, in vivo, 10 mg/kg) | AUCall [3, 4] | Cl-obs [3, 4] | AUCall [3, 5] | Cmax [3, 5] | AUCall [3, 6] | Cl-obs [3, 6] | AUCall [3, 7] | Cmax [3, 7]
1 | Cc1cc(Nc2nc([C@H](O)c3ccc(F)cc3)nc3ccccc23)n[nH]1 [(R)(−)] | 0.075 µM | over 85% | > 100% | 1.7 µM | > 40 µM | 26.9 µM | > 40 µM | – | – | – | – | – | – | – | – | – | – | – | –
2 | Cc1cc(Nc2nc([C@@H](O)c3ccc(F)cc3)nc3ccccc23)n[nH]1 [(S)(+)] | 0.038 µM | – | 89% | < 0.31 µM | > 40 µM | 22.7 µM | > 40 µM | both enantiomers were present in plasma in almost equal proportions | – | – | – | – | – | – | – | – | – | – | –
3 | Cc1cc(Nc2nc(C(O)c3ccc(F)cc3)nc3ccccc23)n[nH]1 (racemic) [Racemate] | 0.07 µM | – | – | < 0.31 µM | > 40 µM | 23.1 µM | > 40 µM | – | 9.34 µM | 9.75 µM | > 100% | 2.19 µM·h | 21.27 mL/min/kg | 46.20 µM·h | 5.76 µM | 2.19 µM·h | 21.27 mL/min/kg | 46.20 µM·h | 5.76 µM
